Assay results from patent US11180474B2 (BRISTOL-MYERS SQUIBB COMPANY, priority 2016, dated 2021).

Key:
human TLR7 = target: T1, human TLR7 (Homo sapiens, UniProt Q9NYK1); assay: TLR7 inhibition reporter assay (HEK-Blue cells, SEAP reporter, gardiquimod stimulation); assay type: cell-based; conditions: HEK-Blue cells overexpressing human TLR7, gardiquimod 7.5 μM
T1 construct: host or cells: HEK-Blue cells
T1 sequence (Q9NYK1 27-1049): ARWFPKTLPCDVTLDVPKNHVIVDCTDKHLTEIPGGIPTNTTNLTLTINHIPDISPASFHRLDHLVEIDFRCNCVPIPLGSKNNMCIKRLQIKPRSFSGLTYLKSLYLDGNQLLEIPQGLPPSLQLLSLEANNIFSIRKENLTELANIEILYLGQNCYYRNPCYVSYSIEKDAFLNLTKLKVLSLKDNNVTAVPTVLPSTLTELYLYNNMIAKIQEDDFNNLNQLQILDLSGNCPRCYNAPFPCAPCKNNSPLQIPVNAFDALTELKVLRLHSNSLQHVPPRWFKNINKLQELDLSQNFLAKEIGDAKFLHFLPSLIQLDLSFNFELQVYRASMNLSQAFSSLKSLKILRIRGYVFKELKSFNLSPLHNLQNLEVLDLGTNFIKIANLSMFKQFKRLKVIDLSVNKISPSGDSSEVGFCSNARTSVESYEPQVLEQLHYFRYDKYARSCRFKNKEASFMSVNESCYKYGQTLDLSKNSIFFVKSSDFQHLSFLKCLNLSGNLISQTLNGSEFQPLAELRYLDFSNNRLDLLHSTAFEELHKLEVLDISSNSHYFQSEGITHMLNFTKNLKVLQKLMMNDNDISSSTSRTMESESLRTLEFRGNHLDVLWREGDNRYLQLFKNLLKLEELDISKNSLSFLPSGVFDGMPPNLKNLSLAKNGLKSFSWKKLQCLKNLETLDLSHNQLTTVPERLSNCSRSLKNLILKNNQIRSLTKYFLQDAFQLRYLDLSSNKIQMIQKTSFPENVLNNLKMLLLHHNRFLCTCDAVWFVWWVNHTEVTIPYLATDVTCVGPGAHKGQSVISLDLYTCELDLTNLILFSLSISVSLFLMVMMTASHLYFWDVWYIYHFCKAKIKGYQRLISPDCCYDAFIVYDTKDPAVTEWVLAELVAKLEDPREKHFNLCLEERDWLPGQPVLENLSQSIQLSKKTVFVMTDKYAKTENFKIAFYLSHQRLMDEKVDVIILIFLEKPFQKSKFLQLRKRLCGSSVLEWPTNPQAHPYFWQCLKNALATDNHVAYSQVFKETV
Method in brief: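 SEAP readout via HEK-Blue Detection medium after 22 h at 37 °C, 5% CO2 defines inhibition, normalized between agonist-plus-DMSO wells and a reference inhibitor. Compound dose range 0.05 nM–50 μM; TLR7 cells at 15,000/well (gardiquimod), TLR8 at 20,000/well (R848).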

human TLR8 = target: T2, human TLR8 (Homo sapiens, UniProt Q9NR97); assay: TLR8 inhibition reporter assay (HEK-Blue cells, SEAP reporter, R848 stimulation); assay type: cell-based; conditions: HEK-Blue cells overexpressing human TLR8, R848 15.9 μM
T2 construct: host or cells: HEK-Blue cells
T2 sequence (Q9NR97 27-1041): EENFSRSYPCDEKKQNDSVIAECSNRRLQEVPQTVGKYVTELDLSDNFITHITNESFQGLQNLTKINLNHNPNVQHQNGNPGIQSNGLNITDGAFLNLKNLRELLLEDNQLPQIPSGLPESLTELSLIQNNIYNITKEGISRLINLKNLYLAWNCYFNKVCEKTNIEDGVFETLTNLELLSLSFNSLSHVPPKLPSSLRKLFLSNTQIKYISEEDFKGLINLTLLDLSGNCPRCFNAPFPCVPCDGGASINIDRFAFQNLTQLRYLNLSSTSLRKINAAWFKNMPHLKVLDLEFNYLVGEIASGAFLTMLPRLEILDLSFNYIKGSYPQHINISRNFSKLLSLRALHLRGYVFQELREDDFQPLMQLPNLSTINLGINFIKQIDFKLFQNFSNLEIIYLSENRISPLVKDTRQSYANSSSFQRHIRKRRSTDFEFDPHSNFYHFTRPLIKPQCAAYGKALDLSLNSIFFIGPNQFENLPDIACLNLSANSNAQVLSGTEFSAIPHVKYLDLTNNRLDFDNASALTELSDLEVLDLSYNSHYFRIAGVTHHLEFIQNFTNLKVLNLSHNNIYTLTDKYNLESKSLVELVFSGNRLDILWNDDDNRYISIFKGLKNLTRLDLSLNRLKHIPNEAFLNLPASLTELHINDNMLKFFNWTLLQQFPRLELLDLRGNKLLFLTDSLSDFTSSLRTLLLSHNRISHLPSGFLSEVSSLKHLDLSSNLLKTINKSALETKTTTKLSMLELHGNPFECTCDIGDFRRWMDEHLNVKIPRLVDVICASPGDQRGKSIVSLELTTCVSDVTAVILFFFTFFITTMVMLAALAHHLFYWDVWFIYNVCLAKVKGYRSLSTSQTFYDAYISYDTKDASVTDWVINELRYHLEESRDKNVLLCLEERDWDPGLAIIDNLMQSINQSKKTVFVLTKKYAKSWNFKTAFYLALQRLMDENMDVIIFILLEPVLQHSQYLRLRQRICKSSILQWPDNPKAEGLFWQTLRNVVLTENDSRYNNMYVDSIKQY
Method: TLR7/8/9 Inhibition Reporter Assays
Briefly, cells are seeded into Greiner 384 well plates (15000 cells per well for TLR7, 20,000 for TLR8 and 25,000 for TLR9) and then treated with test compounds in DMSO to yield a final dose response concentration range of 0.05 nM-50 μM. […] After a 22 hour incubation at 37° C., 5% CO2, SEAP levels are determined with the addition of HEK-Blue™ Detection reagent (Invivogen), a cell culture medium that allows for detection of SEAP, according to manufacturer's specifications. The percent inhibition is determined as the % reduction in the HEK-Blue signal present in wells treated with agonist plus DMSO alone compared to wells treated with a known inhibitor.

| Compound | IC50 (human TLR7) | IC50 (human TLR8) |
| --- | --- | --- |
| CCc1c(-c2ccc(OC)c(OC)c2)[nH]c2c(F)cc(C3CCN(CCNC)CC3)cc12 [Example 191, 2-(4-(2-(3,4-dimethoxyphenyl)-3-ethyl-7-fluoro-1H-indol-5-yl)piperidin-1-yl)-N-methylethan-1-amine] | 1190 nM | 110 nM |
| CCc1c(-c2ccc(OC)c(OC)c2)[nH]c2ccc(C3CCN(C(=O)CNCC#N)CC3)cc12 [Example 161, 2-((2-(4-(2-(3,4-dimethoxyphenyl)-3-ethyl-1H-indol-5-yl)piperidin-1-yl)-2-oxoethyl)amino)acetonitrile] | 1210 nM | 332 nM |
| CCc1c(-c2ccc(OC)c(OC)c2)[nH]c2ccc(C3CCN(C4CCN(Cc5c[nH]cn5)CC4)CC3)cc12 [Example 125, 5-(1′-((1H-imidazol-4-yl)methyl)-[1,4′-bipiperidin]-4-yl)-2-(3,4-dimethoxyphenyl)-3-ethyl-1H-indole] | 182 nM | 150 nM |
| CCc1c(-c2ccc(OC)c(OC)c2)[nH]c2ccc(C3CCN(C(=O)CNCCO)CC3)cc12 [Example 159, 1-(4-(2-(3,4-dimethoxyphenyl)-3-ethyl-1H-indol-5-yl)piperidin-1-yl)-2-((2-hydroxyethyl)amino) ethan-1-one] | 42 nM | 26 nM |
| CCOC(=O)c1c(C)[nH]c(CN2CCC(N3CCC(c4ccc5[nH]c(-c6ccc(OC)c(OC)c6)c(CC)c5c4)CC3)CC2)c1C [Example 127, ethyl 5-((4-(2-(3,4-dimethoxyphenyl)-3-ethyl-1H-indol-5-yl)-[1,4′-bipiperidin]-1′-yl)methyl)-2,4-dimethyl-1H-pyrrole-3-carboxylate] | 1620 nM | 345 nM |
| CCc1c(-c2ccc(OC)c(OC)c2)[nH]c2ccc(C3CCN(C4CCN(Cc5cc(C)nn5C)CC4)CC3)cc12 [Example 132, 2-(3,4-dimethoxyphenyl)-5-(1′-((1,3-dimethyl-1H-pyrazol-5-yl)methyl)-[1,4′-bipiperidin]-4-yl)-3-ethyl-1H-indole] | ≥ 50000 nM | ≥ 50000 nM |
| CCc1c(-c2ccc(OC)c(OC)c2)[nH]c2ccc(C3CCN(CC(C)C(F)(F)F)CC3)cc12 (stereo not drawn) [Example 180, 2-(3,4-dimethoxyphenyl)-3-ethyl-5-(1-(3,3,3-trifluoro-2-methylpropyl)piperidin-4-yl)-1H-indole] | ≥ 50000 nM | 776 nM |
| CCc1c(-c2ccc(OC)c(OC)c2)[nH]c2ccc(C3CCN(C4CCN(Cc5sccc5C)CC4)CC3)cc12 [Example 139, 2-(3,4-dimethoxyphenyl)-3-ethyl-5-(1′-((3-methylthiophen-2-yl)methyl)-[1,4′-bipiperidin]-4-yl)-1H-indole] | 579 nM | 206 nM |
| CCc1c(-c2ccc(OC)c(OC)c2)[nH]c2ccc(C3CCN(C(=O)CNc4nccs4)CC3)cc12 [Example 177, 1-(4-(2-(3,4-dimethoxyphenyl)-3-ethyl-1H-indol-5-yl)piperidin-1-yl)-2-(thiazol-2-ylamino)ethanone] | 121 nM | 36 nM |
| CCc1c(-c2ccc(OC)c(OC)c2)[nH]c2c(F)cc(C3CCNCC3)cc12 [Example 189, 2-(3,4-dimethoxyphenyl)-3-ethyl-7-fluoro-5-(piperidin-4-yl)-1H-indole] | 430 nM | 620 nM |
| CCc1c(-c2ccc(OC)c(OC)c2)[nH]c2ccc(C3CCN(C4CCN(Cc5ccccc5)CC4)CC3)cc12 [Example 147, 5-(1′-benzyl-[1,4′-bipiperidin]-4-yl)-2-(3,4-dimethoxyphenyl)-3-ethyl-1H-indole] | 292 nM | 101 nM |
| CCc1c(-c2ccc(OC)c(OC)c2)[nH]c2ccc(C3CCN(C4CCN(C5CCCC5)CC4)CC3)cc12 [Example 152, 5-(1′-cyclopentyl-[1,4′-bipiperidin]-4-yl)-2-(3,4-dimethoxyphenyl)-3-ethyl-1H-indole] | 590 nM | 33 nM |
